Patent publication US12497465B2, “Combination of antibody-drug conjugate and tubulin inhibitor” (priority 2018, dated 2025)
Counter-ions that a name gives are not always drawn. Like-named read-outs stand apart in the source and are kept apart here.

Tests used:
[1] = tested on: Human breast cancer cell line KPL-4; assay: Antitumor study (1): subcutaneously transplanted KPL-4 cells in nude mice; type: in vivo; conditions: KPL-4 xenograft, BALB/c nude mice, last day of the study; ADC (1) […] iv Day 0; paclitaxel 15 mg/kg iv Day 0, 7; eribulin mesylate 0.8 mg/kg iv Day 0, 4
Source text: The calculation formula is as shown below.
Human breast cancer cell line KPL-4, which was obtained from Dr. Junichi Kurebayashi in Kawasaki Medical School [British Journal of Cancer, (1999) 79 (5/6).

[2] = tested on: Human breast cancer cell line JIMT-1; assay: Antitumor study (2): subcutaneously transplanted JIMT-1 cells in nude mice; type: in vivo; conditions: JIMT-1 xenograft, ADC (1) 10 mg/kg iv Day 0, paclitaxel 15 mg/kg iv Day 0, 7, 14, eribulin mesylate 0.8 mg/kg iv Day 0, 3
Description: (§1) Measurement and calculation formula: In all studies, the major axis and minor axis of tumors were measured twice a week with an electronic digital caliper (CD15-CX, Mitutoyo Corp.), and the tumor volume (mm^3) was calculated. The calculation formula is as shown below. Tumor volume(mm^3)=½×Major axis(mm)×[Minor axis (mm)]^2
(§2) Paclitaxel was dissolved with cremophor and ethanol (1:1), diluted with physiological saline, and then intravenously administered to the tail vein in a fluid volume of 10 or 20 mL/kg. Eribulin mesylate was diluted with physiological saline, and intravenously administered to the tail vein in a fluid volume of 10 mL/kg.
Human breast cancer cell line JIMT-1, which was purchased from DSMZ (Deutsche Sammlung von Mikroorganismen und Zellkulturen GmbH), was suspended into physiological saline, subcutaneously transplanted at 5×10^6 cells into the right side of female nude mice, and the mice were randomly grouped 13 days after the transplantation (Day 0). […] Paclitaxel was intravenously administered to the tail vein at a dose of 15 mg/kg on Day 0, Day 7 and Day 14. Eribulin mesylate was intravenously administered to the tail vein at a dose of 0.8 mg/kg on Day 0 and Day 3. Single administration groups of each drug, a combined administration group, and a solvent administration group as a control group were set up.

[3] = tested on: Human gastric cancer cell line NCI-N87; assay: Antitumor study (3): subcutaneously transplanted NCI-N87 cells in nude mice; type: in vivo; conditions: NCI-N87 xenograft, ADC (1) 1 mg/kg iv Day 0, paclitaxel 15 mg/kg iv Day 0, 7, eribulin mesylate 0.4 mg/kg iv Day 0, 4
Description: as §1, §2
Human gastric cancer cell line NCI-N87, which was purchased from ATCC (American Type Culture Collection), was suspended into physiological saline, subcutaneously transplanted at 1×10^7 cells into the right side of female nude mice, and the mice were randomly grouped 6 days after the transplantation (Day 0). […] Paclitaxel was intravenously administered to the tail vein at a dose of 15 mg/kg on Day 0 and Day 7. Eribulin mesylate was intravenously administered to the tail vein at a dose of 0.4 mg/kg on Day 0 and Day 4. Single administration groups of each drug, a combined administration group, and a solvent administration group as a control group were set up.

[4] = tested on: Human breast cancer cell line JIMT-1; conditions: JIMT-1 xenograft, nude mice; ADC (2) 10 mg/kg iv Day 0, 7, 14; paclitaxel 15 mg/kg iv Day 0, 7
Description: as §1
(§3) Paclitaxel was dissolved with cremophor and ethanol (1:1), diluted with physiological saline, and then intravenously administered to the tail vein in a fluid volume of 10 or 20 mL/kg.
Human breast cancer cell line JIMT-1, which was purchased from DSMZ, was suspended into physiological saline, subcutaneously transplanted at 5×10^6 cells into the right side of female nude mice, and the mice were randomly grouped 10 days after the transplantation (Day 0). […] Paclitaxel was intravenously administered to the tail vein at a dose of 15 mg/kg on Day 0 and Day 7. Single administration groups of each drug, a combined administration group, and a solvent administration group as a control group were set up.

[5] = tested on: Human gastric cancer cell line SNU-1; assay: Antitumor study (5): subcutaneously transplanted SNU-1 cells in nude mice; conditions: SNU-1 xenograft, ADC (1) 10 mg/kg iv Day 0, paclitaxel 15 mg/kg iv Day 0, 7
Description: as §1, §3
Human gastric cancer cell line SNU-1, which was purchased from ATCC, was suspended into Matrigel, subcutaneously transplanted at 1×10^7 cells into the right side of female nude mice, and the mice were randomly grouped 28 days after the transplantation (Day 0). […] Paclitaxel was intravenously administered to the tail vein at a dose of 15 mg/kg on Day 0 and Day 7. Single administration groups of each drug, a combined administration group, and a solvent administration group as a control group were set up.

[6] = tested on: Human ovarian cancer cell line OV-90; assay: Antitumor study (8): subcutaneously transplanted OV-90 cells in nude mice; conditions: OV-90 xenograft, Day 17, ADC (3) 10 mg/kg iv Day 0, paclitaxel 15 mg/kg iv Day 0, 7, 14
Description: as §1, §3
Human ovarian cancer cell line OV-90, which was purchased from ATCC, was suspended into Matrigel, subcutaneously transplanted at 2.5×10^6 cells into the right side of female nude mice, and the mice were randomly grouped 15 days after the transplantation (Day 0). […] Paclitaxel was intravenously administered to the tail vein at a dose of 15 mg/kg on Day 0, Day 7, and Day 14. Single administration groups of each drug, a combined administration group, and a solvent administration group as a control group were set up.

[7] = tested on: Human lung cancer cell line NCI-H441; assay: Antitumor study (6): subcutaneously transplanted NCI-H441 cells in nude mice; conditions: NCI-H441 xenograft, ADC (1) 10 mg/kg iv Day 0, paclitaxel 15 mg/kg iv Day 0, 7
Description: as §1, §3
Human lung cancer cell line NCI-H441, which was purchased from ATCC, was suspended into Matrigel, subcutaneously transplanted at 5×10^6 cells into the right side of female nude mice, and the mice were randomly grouped 7 days after the transplantation (Day 0). […] Paclitaxel was intravenously administered to the tail vein at a dose of 15 mg/kg on Day 0 and Day 7. Single administration groups of each drug, a combined administration group, and a solvent administration group as a control group were set up.

[8] = tested on: Human breast cancer cell line MDA-MB-453; assay: Antitumor study (4): subcutaneously transplanted MDA-MB-453 cells in nude mice; conditions: MDA-MB-453 xenograft, ADC (1) 0.5 mg/kg iv Day 0, paclitaxel 15 mg/kg iv Day 0, 7
Description: as §3
Human breast cancer cell line MDA-MB-453, which was purchased from ATCC, was suspended into Matrigel basal membrane matrix (Matrigel), subcutaneously transplanted at 1×10^7 cells into the right side of female nude mice, and the mice were randomly grouped 7 days after the transplantation (Day 0). […] Paclitaxel was intravenously administered to the tail vein at a dose of 15 mg/kg on Day 0 and Day 7. Single administration groups of each drug, a combined administration group, and a solvent administration group as a control group were set up.

| Molecule | tumor growth inhibition (TGI) [1] [%] | TGI [2] [%] | TGI [3] [%] | TGI [4] [%] | TGI [5] [%] | TGI [6] [%] | TGI [7] [%] | TGI [8] [%] |
| --- | --- | --- | --- | --- | --- | --- | --- | --- |
| CC(=O)O[C@H]1C(=O)[C@@]2(C)[C@H]([C@H](OC(=O)c3ccccc3)[C@]3(O)C[C@H](OC(=O)[C@H](O)[C@@H](NC(=O)c4ccccc4)c4ccccc4)C(C)=C1C3(C)C)[C@]1(OC(C)=O)CO[C@@H]1C[C@@H]2O [paclitaxel] | 48 | 30 | 50 | 36 | 58 | 80 | 55 | 96 |
| antibody-drug conjugate (2): anti-HER3 antibody (SEQ ID NO: 3 and 4) conjugated to exatecan-derivative drug-linker via a thioether bond |  |  |  | 69 |  |  |  |  |
| C=C1C[C@@H]2CC[C@@]34C[C@H]5O[C@H]6[C@@H](O3)[C@H]3O[C@H](CC[C@@H]3O[C@H]6[C@H]5O4)CC(=O)C[C@@H]3[C@@H](OC)[C@@H](C[C@H](O)CN)O[C@H]3C[C@H]3O[C@@H](CC[C@@H]1O2)C[C@@H](C)C3=C [eribulin mesylate] | 91 | 73 | 64 |  |  |  |  |  |
| antibody-drug conjugate (3): anti-CDH6 antibody (SEQ ID NO: 11 residues 20-471, SEQ ID NO: 12 residues 21-233) conjugated to exatecan-derivative drug-linker via a thioether bond (conjugate, chains of the INN, looked up, exatecan-derivative drug-linker (deruxtecan)) VH: EVQLVQSGAEVKKPGASVKVSCKASGYTFTRNFMHWVRQAPGQGLEWMGWIYPGDGETEYAQKFQGRVTITADTSTSTAYMELSSLRSEDTAVYYCARGVYGGFAGGYFDFWGQGTLVTVSS VL: DIQMTQSPSSLSASVGDRVTITCKASQNIYKNLAWYQQKPGKAPKLLIYDANTLQTGVPSRFSGSGSGSDFTLTISSLQPEDFATYFCQQYYSGWAFGQGTKVEIK |  |  |  |  |  | 97 |  |  |
